From patent publication US10292968B2, “Substituted heterocycles as bromodomain inhibitors” (Zenith Epigenetics Ltd., priority 2014, dated 2019) come the findings set out here.

The structures appear in SMILES notation. Counter-ions that a name gives are not always drawn. Bounds are passed on as bounds.

Experiment [1] deals with T1, Brd 4 bromodomain 2 (BRD4(2)) (Homo sapiens, UniProt O60885).
T1 construct: N-terminally His-tagged bromodomains (BRD4(1) at 20 nM and BRD4(2) at 100 nM); made in house; host or cells: E. coli BL21(DE3)
Description: AlphaScreen inhibition of tetra-acetylated histone H4 binding to BRD4(2). As to conditions: BRD4(2) at 100 nM, tetra-acetylated histone H4 peptide, 30 min incubation; for IC50: read-out: Alpha Screen BRD4(2). The method, then:
(§1) Proteins were cloned and overexpressed with a N-terminal 6×His tag, then purified by nickel affinity followed by size exclusion chromatography. Briefly, E. coli BL21(DE3) cells were transformed with a recombinant expression vector encoding N-terminally Nickel affinity tagged bromodomains from Brd2, Brd3, Brd4. Cell cultures were incubated at 37° C. with shaking to the appropriate density and induced overnight with IPTG. The supernatant of lysed cells was loaded onto Ni-IDA column for purification. Eluted protein was pooled, concentrated and further purified by size exclusion chromatography. Fractions representing monomeric protein were pooled, concentrated, aliquoted, and frozen at −80° C. for use in subsequent experiments.
(§2) Binding of tetra-acetylated histone H4 peptide (Millipore) and BET bromodomains was confirmed by Amplified Luminescent Proximity Homogenous Assay (AlphaScreen). N-terminally His-tagged bromodomains (BRD4(1) at 20 nM and BRD4(2) at 100 nM) and biotinylated tetra-acetylated histone H4 (10-25 nM) were incubated in the presence of nickel chelate acceptor beads and streptavidin donor beads (PerkinAlmer, 6760000K) added to a final concentration of 2 μg/ml under green light in a white 96 well microtiter plate (Greiner). For inhibition assays, serially diluted compounds were added to the reaction mixtures in a 0.1% final concentrations of DMSO. Final buffer concentrations were 50 mM HEPES, 100 mM NaCl and 0.1% BSA buffer, pH 7.4 and optimized to 30 min incubation time. Assay plates were read at 570 nm on a Synergy H4 Plate Reader (Biotek). IC50 values were determined from a dose response curve.
On the technique in general: Alpha assays give light when donor and acceptor beads are brought close together.

The target of experiment [2] is T2, Brd4 bromodomain 1 (BRD4(1)) (Homo sapiens, UniProt O60885).
T2 construct: N-terminally His-tagged bromodomains (BRD4(1) at 20 nM and BRD4(2) at 100 nM); made in house; host or cells: E. coli BL21(DE3)
Description: AlphaScreen inhibition of tetra-acetylated histone H4 binding to BRD4(1). The following applies: BRD4(1) at 20 nM, tetra-acetylated histone H4 peptide, 30 min incubation; read-out: Alpha Screen BRD4(1). The protocol:
as §1, §2

The next experiment concerns cMYC. Description: Inhibition of cMYC expression (mRNA, real-time PCR) in MV4-11 cells. Type of experiment: cell-based. As to conditions: Human AML MV4-11 cells, 3 h; for IC50: read-out: c-myc activity. The protocol:
MV4-11 cells (CRL-9591) were plated at a density of 2.5×10^4 cells per well in 96 well U-bottom plates and treated with increasing concentrations of test compound or DMSO (0.1%) in IMDM media containing 10% FBS and penicillin/streptomycin, and incubated for 3 h at 37° C. Triplicate wells were used for each concentration. Cells were pelleted by centrifugation and harvested using the mRNA Catcher PLUS kit according to manufacturer's instructions. The eluted mRNA isolated was then used in a one-step quantitative real-time PCR reaction, using components of the RNA UltraSense™ One-Step Kit (Life Technologies) together with Applied Biosystems TaqMan® primer-probes for cMYC and Cyclophilin. Real-time PCR plates were run on a ViiA™7 real time PCR machine (Applied Biosystems), data was analyzed, normalizing the Ct values for cMYC to an internal control, prior to determining the fold expression of each sample, relative to the control.
On the technique in general: Real-time PCR tracks product formation cycle by cycle.

In the next experiment the test system is hIL-6. Description: Inhibition of hIL-6 mRNA transcription in LPS-stimulated U937 cells. It is filed as cell-based. As to conditions: Homo sapiens, U-937, PMA-differentiated U937 cells, 1 h pretreatment, LPS 3 h, read-out: IL-6 activity. The method, then:
Human leukemic monocyte lymphoma U937 cells (CRL-1593.2) were plated at a density of 3.2×10^4 cells per well in a 96-well plate in 100 μL RPMI-1640 containing 10% FBS and penicillin/streptomycin, and differentiated into macrophages for 3 days in 60 ng/mL PMA ([…]) at 37° C. in 5% CO2 prior to the addition of compound. The cells were pretreated for 1 h with increasing concentrations of test compound in 0.1% DMSO prior to stimulation with 1 ug/mL lipopolysaccharide from Escherichia coli. Triplicate wells were used for each concentration. The cells were incubated at 37° C., 5% CO2 for 3 h before the cells were harvested. At time of harvest, media was removed and cells were rinsed in 200 μL PBS. Cells were harvested using the mRNA Catcher PLUS kit according to manufacturer's instructions. The eluted mRNA was then used in a one-step quantitative real-time PCR reaction using components of the RNA UltraSense™ One-Step Kit (Life Technologies) together with Applied Biosystems TaqMan® primer-probes for hIL-6 and Cyclophilin. Real-time PCR plates were run on a ViiA™7 real time PCR machine (Applied Biosystems), data was analyzed, normalizing the Ct values for hIL-6 to an internal control, prior to determining the fold expression of each sample, relative to the control.

The test system of the next experiment is MV4-11 cells. Description: Inhibition of cell proliferation in MV4-11 cells (Cell Titer Aqueous One). It is filed as cell-based. The following applies: Human AML MV-4-11 cells, 72 h; for IC50: MV4-11. The method, then: MV4-11 cells (CRL-9591) were plated at a density of 5×10^4 cells per well in 96 well flat bottom plates and treated with increasing concentrations of test compound or DMSO (0.1%) in IMDM media containing 10% FBS and penicillin/streptomycin. Triplicate wells were used for each concentration and a well containing only media was used as a control. Plates were incubated at 37° C., 5% CO2 for 72 h before adding 20 μL of the Cell Titer Aqueous One Solution (Promega) to each well and incubated at 37° C., 5% CO2 for an additional 3-4 h. The absorbance was read at 490 nm in a spectrophotometer and the percentage of cell titer relative to DMSO-treated cells was calculated after correcting for background by subtracting the blank well's signal. IC50 values were calculated using the GraphPad Prism software.

For `CC(=O)c1cccc(-c2[nH]c(-c3ccccc3)nc2-c2n[nH]c(=O)n2C2CC2)c1` [Example 1, 3-(5-(3-acetylphenyl)-2-phenyl-1H-imidazol-4-yl)-4-cyclopropyl-1H-1,2,4-triazol-5(4H)-one hydrochloride], the IC50 in experiment [1] was 3 to 30 µM; in experiment [2], at most 0.3 µM; in the experiment with cMYC it was 3 to 30 µM; in the experiment on hIL-6, 3 to 30 µM; with MV4-11 cells it was 3 to 30 µM.

Regarding `CCC(=O)c1cccc(-c2[nH]c(-c3ccccc3)nc2-c2n[nH]c(=O)n2C2CC2)c1` [Example 6, 4-cyclopropyl-3-(2-phenyl-5-(3-propionylphenyl)-1H-imidazol-4-yl)-1H-1,2,4-triazol-5(4H)-one hydrochloride], the IC50 in experiment [1] was 3 to 30 µM; in experiment [2], 0.3 to 3 µM; in the experiment on cMYC it was 3 to 30 µM; in the experiment with MV4-11 cells it was 3 to 30 µM.

As to `Cn1ncc2ccc(-c3[nH]c(-c4ccccc4)nc3-c3n[nH]c(=O)n3C3CC3)cc21` [Example 7, 4-cyclopropyl-3-(5-(1-methyl-1H-indazol-6-yl)-2-phenyl-1H-imidazol-4-yl)-1H-1,2,4-triazol-5(4H)-one hydrochloride], the “Alpha Screen BRD4(2)” value in experiment [1] is reported as “Not Active”. Besides, the IC50 was at most 0.3 µM in experiment [2], 3 to 30 µM in the experiment on cMYC, 3 to 30 µM in the experiment with hIL-6 and 3 to 30 µM with MV4-11 cells.

`CC(=O)c1cc(-c2[nH]c(-c3ccccc3)nc2-c2n[nH]c(=O)n2C2CC2)ccc1F` [Example 8, 3-(5-(3-acetyl-4-fluorophenyl)-2-phenyl-1H-imidazol-4-yl)-4-cyclopropyl-1H-1,2,4-triazol-5(4H)-one hydrochloride]: the “Alpha Screen BRD4(2)” value in experiment [1] is given as “Not Active”. Also, the IC50 is at most 0.3 µM in experiment [2] and 3 to 30 µM with hIL-6. Besides, the c-myc activity entry in the experiment on cMYC was “Not Active”. Besides, the “Cell Proliferation activity” value in the experiment with MV4-11 cells is given as “Not Active”.

Regarding `CC(=O)c1cc(F)cc(-c2[nH]c(-c3ccccc3)nc2-c2n[nH]c(=O)n2C2CC2)c1` [Example 9, 3-(5-(3-acetyl-5-fluorophenyl)-2-phenyl-1H-imidazol-4-yl)-4-cyclopropyl-1H-1,2,4-triazol-5(4H)-one hydrochloride], the “Alpha Screen BRD4(2)” value in experiment [1] was “Not Active”. For the same molecule, the IC50 fell in the range of 0.3 to 3 µM in experiment [2], 3 to 30 µM in the experiment with cMYC, 3 to 30 µM in the experiment with hIL-6 and 3 to 30 µM in the experiment on MV4-11 cells.

As to `Cn1ncc2cc(-c3[nH]c(-c4ccccc4)nc3-c3n[nH]c(=O)n3C3CC3)ccc21` [Example 10, 4-cyclopropyl-3-(5-(1-methyl-1H-indazol-5-yl)-2-phenyl-1H-imidazol-4-yl)-1H-1,2,4-triazol-5(4H)-one hydrochloride], the IC50 in experiment [1] fell in the range of 0.3 to 3 µM; in experiment [2] it was 3 to 30 µM. Moreover, in the experiment on cMYC, the c-myc activity result is given as “Not Active”. Also, in the experiment on MV4-11 cells, the “Cell Proliferation activity” value is reported as “Not Active”.

With `Cc1n[nH]c2ccc(-c3[nH]c(-c4ccccc4)nc3-c3n[nH]c(=O)n3C3CC3)cc12` [Example 13, 4-cyclopropyl-3-(5-(3-methyl-1H-indazol-5-yl)-2-phenyl-1H-imidazol-4-yl)-1H-1,2,4-triazol-5(4H)-one hydrochloride], the IC50 in experiment [1] lay in the range of 0.3 to 3 µM; in experiment [2], 0.3 to 3 µM; in the experiment on cMYC, 3 to 30 µM; in the experiment with MV4-11 cells, 3 to 30 µM.

As for `Cn1nnc2ccc(-c3[nH]c(-c4ccccc4)nc3-c3n[nH]c(=O)n3C3CC3)cc21` [Example 14, 4-cyclopropyl-3-(5-(1-methyl-1H-benzo[d][1,2,3]triazol-6-yl)-2-phenyl-1H-imidazol-4-yl)-1H-1,2,4-triazol-5(4H)-one hydrochloride], the IC50 in experiment [1] is at most 0.3 µM; in experiment [2] it was at most 0.3 µM; in the experiment with cMYC it was 3 to 30 µM; with hIL-6, 3 to 30 µM; in the experiment with MV4-11 cells, 3 to 30 µM.
